Measurements published in patent publication US20260022114A1, “N-(5-SUBSTITUTED-[(1,3,4-THIADIAZOLYL) OR (1,3-THIAZOLYL)](SUBSTITUTED)CARBOXAMIDE COMPOUNDS, PHARMACEUTICAL COMPOSITIONS, AND METHODS OF PREPARING THE AMIDE COMPOUNDS AND OF THEIR USE” (Repare Therapeutics Inc., priority 2022, published 2026).

Each compound was assayed against PolQ ATPase enzyme (1-894) (Homo sapiens (Human), UniProt O75417) (assay: Polθ ATPase enzymatic assay (0.5 nM enzyme concentration), ADP-Glo). Conditions: 0.5 nM PolQ ATPase enzyme (1-894); average IC50.
Type: biochemical
Procedure: PolQ ATPase enzyme (1-894) at 0.5 nM is incubated with a 10-point concentration response of inhibitors for 15 min at rt in the following buffer: 50 mM Tris Cl pH 7.5, 10% glycerol, 5 mM DTT, 10 mM MgCl2, 0.1 mg/ml BSA. Following pre-incubation with inhibitors, DNA (Fork C) at 20 nM and ATP at 100 μM are added to start the reaction. Enzymatic reaction proceeds at rt for 180 min. ATP consumption is measured using the ADP-Glo assay from Promega. Luminescence is read on the Envision and IC50 are determined using the variable slope 4-parameters equation.
Oligos are annealed by heating at 95° C. for 5 min in the following buffer (10 mM Tris-HCl PH7.5, 50 mM NaCl, 1 mM EDTA) and cooled to rt. […]

Sequence of PolQ ATPase enzyme (1-894) (O75417 1-894): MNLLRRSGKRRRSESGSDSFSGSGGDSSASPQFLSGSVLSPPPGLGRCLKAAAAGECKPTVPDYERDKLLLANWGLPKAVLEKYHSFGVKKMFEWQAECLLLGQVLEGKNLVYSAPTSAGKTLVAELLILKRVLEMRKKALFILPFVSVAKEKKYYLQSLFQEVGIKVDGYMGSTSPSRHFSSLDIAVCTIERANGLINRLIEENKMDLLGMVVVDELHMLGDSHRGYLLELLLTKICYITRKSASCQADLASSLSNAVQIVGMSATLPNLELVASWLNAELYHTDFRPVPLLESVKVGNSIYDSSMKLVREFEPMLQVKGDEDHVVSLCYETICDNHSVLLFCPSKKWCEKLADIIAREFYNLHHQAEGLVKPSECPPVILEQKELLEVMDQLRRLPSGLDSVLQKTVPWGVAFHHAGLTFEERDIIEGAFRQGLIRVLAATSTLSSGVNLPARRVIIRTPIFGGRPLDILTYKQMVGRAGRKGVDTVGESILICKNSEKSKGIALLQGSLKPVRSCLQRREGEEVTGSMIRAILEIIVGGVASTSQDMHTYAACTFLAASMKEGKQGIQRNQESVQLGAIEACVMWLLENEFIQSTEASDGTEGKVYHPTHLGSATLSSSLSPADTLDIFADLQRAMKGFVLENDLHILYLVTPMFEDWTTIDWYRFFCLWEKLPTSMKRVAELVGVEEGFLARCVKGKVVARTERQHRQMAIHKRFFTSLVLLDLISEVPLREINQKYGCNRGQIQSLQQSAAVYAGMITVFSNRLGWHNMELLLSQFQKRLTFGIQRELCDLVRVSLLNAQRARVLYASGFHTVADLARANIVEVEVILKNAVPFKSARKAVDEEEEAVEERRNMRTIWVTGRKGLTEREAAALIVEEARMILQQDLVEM

Row | IC50 [nM] | Compound
1 | 1.4 | COc1cnc(C(F)F)cc1-c1cc(C2C[C@@H]2C(=O)N(C)C)ccc1C(=O)Nc1nnc(C#CC2CC2)s1 (mixture of isomers) [Compound 362]
2 | < 0.25 | COc1cnc(C(F)F)cc1-c1cc(C#CCNCC(F)(F)F)ncc1C(=O)Nc1nnc(C#CC2CC2)s1 [Compound 558]
3 | 0.7 | COc1cnc(C(F)F)cc1-c1cc(N2CCC(C)CCC2=O)ncc1C(=O)Nc1nnc(C#CC2CC2)s1 (racemic) [Compound 485]
4 | 1.1 | C#C[C@H]1C[C@@H]1c1nnc(NC(=O)c2cnc(-n3ccc(Cl)cc3=O)cc2-c2cc(C(F)F)ncc2OC)s1 [Compound 624]
5 | 6.4 | COc1cnc(C(F)F)cc1-c1cc(CC2CCOCC2)ncc1C(=O)Nc1nnc(C#CC2CC2)s1 [Compound 267]
6 | 1.5 | COc1cnc(C(F)F)cc1-c1cc(Oc2cc(N3CCOCC3)ccn2)ncc1C(=O)Nc1nnc(C#CC2CC2)s1 [Compound 526]
7 | 9.9 | C#C[C@@H]1CC1c1nnc(NC(=O)c2cnc(-n3ccc(C)cc3=O)cc2-c2cc(C(F)F)ncc2OC)s1 (mixture of isomers) [Compound 593]
8 | > 100 | COc1cnc(C(F)F)cc1-c1nc(-c2nnc(C)o2)ccc1C(=O)Nc1ncc(C#CC2CC2)s1 [Compound 392]
9 | < 0.25 | COc1cnc(C(F)F)cc1-c1cc(-n2ccc(C(N)=O)cc2=O)ncc1C(=O)Nc1nnc(C#CC2CC2)s1 [Compound 492]
10 | 33.3 | COc1cnc(C(F)F)cc1-c1cc(-n2ccc(C)cc2=O)ncc1C(=O)Nc1nnc([C@H]2C[C@@H]2C#N)s1 (racemic) [Compound 539]
11 | 0.36 | COc1cnc(C(F)F)cc1-c1cc(N2C[C@H](C)OCC2=O)ncc1C(=O)Nc1nnc(C#CC2CC2)s1 [Compound 486]
12 | < 0.25 | COc1cnc(C(F)F)cc1-c1cc(-c2cccn(C)c2=O)ncc1C(=O)Nc1nnc(C#CC2CC2)s1 [Compound 483]
13 | < 0.25 | C#C[C@H]1C[C@@H]1c1nnc(NC(=O)c2cnc(Oc3cc(Cl)ccn3)cc2-c2cc(C(F)F)ncc2OC)s1 [Compound 577]
14 | < 0.25 | COc1cnc(C(F)F)cc1-c1cc(N2CCC3CCC3C2=O)ncc1C(=O)Nc1nnc(C#CC2CC2)s1 (racemic) [Compound 443]
15 | 45 | COc1cnc(C(F)F)cc1-c1cc(-n2ccc(C)cc2=O)ncc1C(=O)Nc1nnc(CC(C)(C)OC)s1 [Compound 568]
16 | < 0.25 | COc1cnc(C(F)F)cc1-c1cc(C#CCC2CCNC2=O)ncc1C(=O)Nc1nnc(C#CC2CC2)s1 (racemic) [Compound 570]
17 | 0.95 | COc1cnc(C(F)F)cc1-c1cc(-n2ccc(C)cc2=O)ncc1C(=O)Nc1nnc(C2C[C@@H]2C2CCCO2)s1 (mixture of isomers) [Compound 633]
18 | 0.4 | COc1cnc(C(F)F)cc1-c1cc(-n2ccc(N(C)C3COC3)cc2=O)ncc1C(=O)Nc1nnc(C#CC2CC2)s1 [Compound 614]
19 | 0.5 | COc1cnc(C(F)F)cc1-c1cc(C#CC(C)(C)N2CCCCC2)ncc1C(=O)Nc1nnc(C#CC2CC2)s1 [Compound 553]
20 | < 0.25 | Cc1nnc(Cn2cc(-c3cc(C(F)F)ccc3C)c(C(=O)Nc3ncc(C#CC4CC4)s3)cc2=O)o1 [Compound 116]
21 | 0.45 | COc1cnc(C(F)F)cc1-c1cc(-n2cccc(C)c2=O)ncc1C(=O)Nc1nnc([C@H]2C[C@@H]2C(F)(F)F)s1 [Compound 552]

Row | IC50 [nM] | Compound
22 | 1.9 | COc1cnc(C(F)F)cc1-c1cc(-n2ccc(C)cc2=O)ncc1C(=O)Nc1nnc([C@H]2C[C@@H]2F)s1 [Compound 544]
23 | 0.3 | COc1cnc(C(F)F)cc1-c1cc(C#CCN2CCCC2=O)ncc1C(=O)Nc1nnc([C@H]2C[C@@H]2c2cncs2)s1 (racemic) [Compound 643]
24 | 0.33 | COc1cnc(C(F)F)cc1-c1cc(-n2ccc(C)cc2=O)ncc1C(=O)Nc1nnc([C@H]2C[C@@H]2c2cncs2)s1 (racemic) [Compound 579]
25 | 0.99 | COc1cnc(C(F)F)cc1-c1cc(-n2ccc(C)cc2=O)ncc1C(=O)Nc1nnc([C@H]2C[C@@H]2C2CCOCC2)s1 (racemic) [Compound 581]
26 | > 100 | COc1cnc(C(F)F)cc1-c1cc(C#CCN2C(=O)CCC2=O)ncc1C(=O)Nc1nnc(C#CC2CC2)s1 [Compound 561]
27 | 3.1 | COc1cnc(C(F)F)cc1-c1cc(C#CCN2CCOCC2)ncc1C(=O)Nc1nnc([C@H]2C[C@@H]2C(F)(F)F)s1 [Compound 609]
28 | 5.7 | COc1ccc(-c2cc(-c3cc(C(F)F)ncc3OC)c(C(=O)Nc3nnc(C#CC4CC4)s3)cn2)c(OC)n1 [Compound 538]
29 | < 0.25 | CC#C[C@H]1CC1c1nnc(NC(=O)c2cnc(-n3ccc(C)cc3=O)cc2-c2cc(C(F)F)ncc2OC)s1 (mixture of isomers) [Compound 637]
30 | < 0.25 | COc1cnc(C(F)F)cc1-c1cc(C2C[C@H]2C(=O)N(C)C)ccc1C(=O)Nc1nnc(C#CC2CC2)s1 (mixture of isomers) [Compound 363]
31 | 1 | COc1cnc(C(F)F)cc1-c1cc(C#CCN2CCN(C)CC2)ncc1C(=O)Nc1nnc(C#CC2CC2)s1 [Compound 540]
32 | < 0.25 | COc1cnc(C(F)F)cc1-c1cc(-n2ccc(C)cc2=O)ncc1C(=O)Nc1nnc([C@H]2C[C@@H]2C(F)F)s1 [Compound 623]
33 | 0.39 | C#C[C@@H]1CC1c1nnc(NC(=O)c2ccc(N3CCOCC3=O)cc2-c2cc(C(F)F)ncc2OC)s1 (stereo partly shown) [Compound 177]
34 | 3 | C#C[C@H]1C[C@@H](c2nnc(NC(=O)c3cnc(-n4ccc(C)cc4=O)cc3-c3cc(C(F)F)ncc3OC)s2)C1 [Compound 594]
35 | < 0.25 | COc1cnc(C(F)F)cc1-c1cc(-n2ccc(C)cc2=O)ncc1C(=O)Nc1nnc([C@H]2C[C@@H]2c2ccc(C#N)cc2)s1 [Compound 563]
36 | < 0.25 | COc1cnc(C(F)F)cc1-c1cc(C2CC(C)CCC2=O)ncc1C(=O)Nc1nnc(C#CC2CC2)s1 (racemic) [Compound 389]
37 | < 0.25 | C#C[C@H]1C[C@@H]1c1nnc(NC(=O)c2cnc(-n3cccc(C)c3=O)cc2-c2cc(C(F)F)ncc2OC)s1 [Compound 547]
38 | 1.6 | COc1ncc(-c2cc(-c3cc(C(F)F)ncc3OC)c(C(=O)Nc3nnc(C#CC4CC4)s3)cn2)cn1 [Compound 533]
39 | 0.44 | COc1cnc(C(F)F)cc1-c1cc(-n2ccc(N(C)C)cc2=O)ncc1C(=O)Nc1nnc(C#CC2CC2)s1 [Compound 537]
40 | 1 | C#C[C@H]1C[C@@H]1c1nnc(NC(=O)c2cnc(C#CCN3CCOCC3)cc2-c2cc(C(F)F)ncc2OC)s1 [Compound 573]
41 | 0.25 | COc1cnc(C(F)F)cc1-c1cc(-n2ccc(C)cc2=O)ncc1C(=O)Nc1nnc(C2C[C@@H]2c2cscn2)s1 (mixture of isomers) [Compound 635]
42 | 0.33 | COc1cnc(C(F)F)cc1-c1cc(-n2ccc(C(=O)O)cc2=O)ncc1C(=O)Nc1nnc(C#CC2CC2)s1 [Compound 495]

Row | IC50 [nM] | Compound
43 | < 0.25 | [2H]C([2H])([2H])N1CCN(c2cc(-c3cc(C(F)F)ncc3OC)c(C(=O)Nc3nnc(C#CC4CC4)s3)cn2)C(=O)C12CC2 [Compound 503]
44 | 1.7 | COc1cnc(C(F)F)cc1-c1cc(-n2ccc(B(O)O)cc2=O)ncc1C(=O)Nc1nnc(C#CC2CC2)s1 [Compound 509]
45 | 30 | COc1cnc(C(F)F)cc1-c1cc(-n2ccc(C)cc2=O)ncc1C(=O)Nc1nnc(C(C)OC)s1 (racemic) [Compound 604]
46 | 4 | COc1cnc(C(F)F)cc1-c1cc(-n2ccc(C)cc2=O)ncc1C(=O)Nc1nnc(C2CC2(F)Cl)s1 (racemic) [Compound 605]
47 | 12 | COc1cnc(C(F)F)cc1-c1cc(-c2ccn(C)c(=O)c2)ncc1C(=O)Nc1nnc(C#CC2CC2)s1 [Compound 519]
48 | < 0.25 | C#C[C@H]1C[C@@H]1c1nnc(NC(=O)c2cnc(-n3ccc(CO)cc3=O)cc2-c2cc(C(F)F)ncc2OC)s1 [Compound 571]
49 | 0.29 | COc1cnc(C(F)F)cc1-c1cc(C#CCN2CCOCC2=O)ncc1C(=O)Nc1nnc(C#CC2CC2)s1 [Compound 542]
50 | 29 | COc1cnc(C(F)F)cc1-c1cc(-n2ccc(C)cc2=O)ncc1C(=O)Nc1nnc(C(C)(C)OC)s1 [Compound 576]
51 | 1.2 | COc1cnc(C(F)F)cc1-c1cc(-n2ccc(C)cc2=O)ncc1C(=O)Nc1nnc([C@H]2C[C@@H]2C(C)C)s1 (racemic) [Compound 586]
52 | 4.6 | C#C[C@H]1CC1c1nnc(NC(=O)c2ccc(-c3nnc(C)o3)cc2-c2cc(C(F)F)ncc2OC)s1 (mixture of isomers) [Compound 373]
53 | 0.93 | COc1cnc(C(F)F)cc1-c1cc(C#CCC(C)(C)O)ncc1C(=O)Nc1nnc([C@H]2C[C@@H]2c2ccn(C)n2)s1 [Compound 631]
54 | 0.42 | COCCC#Cc1cc(-c2cc(C(F)F)ncc2OC)c(C(=O)Nc2nnc([C@H]3C[C@@H]3C)s2)cn1 (racemic) [Compound 625]
55 | 11 | COCc1nnc(NC(=O)c2cnc(-n3ccc(C)cc3=O)cc2-c2cc(C(F)F)ncc2OC)s1 [Compound 602]
56 | 1.2 | COc1cnc(C(F)F)cc1-c1cc(N2CCN(CC#N)C3(CC3)C2=O)ncc1C(=O)Nc1nnc(C#CC2CC2)s1 [Compound 508]
57 | 0.79 | COc1cnc(C(F)F)cc1-c1cc(-n2cccc(Cl)c2=O)ncc1C(=O)Nc1nnc([C@H]2C[C@@H]2C)s1 [Compound 608]
58 | < 0.25 | COc1cnc(C(F)F)cc1-c1cc(-n2cccc(C(C)=O)c2=O)ncc1C(=O)Nc1nnc(C#CC2CC2)s1 [Compound 491]
59 | 15 | COc1cnc(C(F)F)cc1-c1cc(C#CCn2cccn2)ncc1C(=O)Nc1nnc(C#CC2CC2)s1 [Compound 598]
60 | < 0.25 | COc1cnc(C(F)F)cc1-c1cc(-n2ccc(C)cc2=O)ncc1C(=O)Nc1nnc(C#CC2CCOCC2)s1 [Compound 487]
61 | < 0.25 | COC(=O)N1CCN(c2cc(-c3cc(C(F)F)ncc3OC)c(C(=O)Nc3nnc(C#CC4CC4)s3)cn2)C(=O)C12CC2 [Compound 505]
